# Values quoted from earlier work in patent US20140053594A1, “THERMALLY ACTIVATED PRESSURE BOOSTER FOR HEAT PUMPING AND POWER GENERATION” (priority 2011, published 2014).
# Key:
# [1] = test system: RBT; conditions: intraperitoneal, rabbit
# [2] = test system: rat; conditions: intraperitoneal
# [3] = test system: rat; conditions: oral
# [4] = test system: rat; conditions: intravenous
# [5] = test system: Mouse
# [6] = test system: rat
SMILES,IPR-RBT LD50 [1],IPR-RAT LD50 [2] [mg/kg],ORL-RAT LD50 [3],IVN-RAT LD50 [4] [mg/kg],Acute oral toxicity (LD50) [5],Acute dermal toxicity (LD50) [6]
"CN(C)C=O [DMF, dimethylformamide]",LD50 1000 mg kg^−1,1400,ORL-RAT LD50 2800 mg kg^−1,2000,,
"C[S+](C)[O-] [DMSO, dimethyl sulfoxide]",,,,,7920 mg/kg [Mouse],40000 mg/kg [Rat]
